Measured values from patent US8637252B2, “Methods and compositions for determining altered susceptibility of HIV-1 to anti-HIV drugs” (Monogram Biosciences, Inc., priority 2011, dated 2014).
Where “and” joins values, the source holds several entries; their conditions need not be identical. Equal values may be shown once.

Legend:
[1] = system: HIV-1 (patient-derived POL segment); assay: phenotypic drug resistance test, resistance test vectors with patient-derived POL segment (entire pol gene), luciferase, 293 cells; assay type: cell-based
From the text: (§1) Patient-derived segment(s) corresponding to the entire pol gene, encoding HIV protease, reverse transcriptase (including RNAse H), and integrase (hereinafter “POL”), the portion of pol encoding amino acids 1-305 of reverse transcriptase (hereinafter “PR-RT”), the portion of pol encoding amino acids 319-440 of reverse transcriptase (including RNAse H), and integrase (hereinafter “RHIN”), were amplified by the reverse transcription-polymerase chain reaction method (RT-PCR) using viral RNA isolated from viral particles present in the plasma or serum of HIV-infected individuals as described below. The portion of pol encoding protease, amino acids 1-531 of reverse transcriptase (including RNase H) (hereinafter “PRRT-RH”), or the portion of pol encoding protease, reverse transcriptase (including RNAse H) and integrase (hereinafter “PRRT-RHIN”), were assembled from amplicons described above by standard recombinant DNA techniques involving a KpnI restriction site at amino acid 400 or a Pin A1 site at amino acid 315.
(§2) Virus was pelleted by centrifugation at 20,400×g for 60 min from plasma (typically, 1 ml) prepared from blood samples collected in evacuated tubes containing either EDTA, acid-citrate dextrose, or heparin as an anticoagulant. Virus particles were disrupted by resuspending the pellets in 200 [1.1 of lysis buffer (4 M guanidine thiocyanate, 0.1 M Tris HCl (pH 8.0), 0.5% sodium lauryl sarcosine, 1% dithiothreitol). RNA was extracted from viral lysates by using oligo(dT) linked to magnetic beads (Dynal, Oslo, Norway). Reverse transcription was performed with Superscript III (Invitrogen) at 50 degrees for 1 hour using primer 1.
(§3) From the resultant cDNA either POL or RHIN sequences were amplified using the Advantage High Fidelity PCR kit (BD Biosciences; Clontech). POL amplification products are made using forward Primer 3 containing an Apal site and reverse Primer 4 containing a Xho 1 site. RHIN amplification products are made using forward Primer 2 containing a P1NA1 site and reverse Primer 4 containing a Xho 1 site.
(§4) A retroviral vector designed to measure antiretroviral drug susceptibility was constructed by using an infectious molecular clone of HIV-1. The vector, referred to herein as an indicator gene viral vector (IGVV), is replication defective and contains a luciferase expression cassette inserted within a deleted region of the envelope (env) gene. The IGVV is described in U.S. Pat. No. 5,837,464 (International Publication Number WO 97/27319) which is hereby incorporated by reference in its entirety. This retroviral vector was further modified to allow insertion of either the entire pol gene (POL) or the portion of poi encoding amino acids 319-440 of reverse transcriptase, the RNase H portion of reverse transcriptase, and integrase (REIN) by engineering an Xho l restriction enzyme recognition site into vif. Prior to doing this, an Xho 1 site in nef was deleted. Resistance Test vectors (RTVs) were constructed by incorporating amplified POL or RHIN into the IGVV by using Apal and Xhol or PinAI and Xho 1 restriction sites respectively. RTVs were prepared as libraries (pools) in order to capture and preserve the pol or RHIN sequence heterogeneity of the virus in the patient. POL amplification products were digested with Apal and Xhol, purified by agarose gel electrophoresis, and ligated to ApaI- and Xhol-digested IGVV DNA. RHIN amplification products were digested with PinAI and Xho/, purified by agarose gel electrophoresis, and ligated to PinAI and Xhol-digested IGVV DNA. Ligation reactions were used to transform competent Escherichia coli (Invitrogen, Carlsbad, Calif.). An aliquot of each transformation was plated onto agar, and colony counts were used to estimate the number of patient-derived segments represented in each RTV library. RTV libraries that comprised less than 50 members are not considered representative of the patient virus. […]

[2] = system: HIV-1 (patient-derived RHIN segment); assay: phenotypic drug resistance test, resistance test vectors with patient-derived RHIN segment, luciferase, 293 cells; assay type: cell-based
From the text: as §1, §2, §3, §4

[3] = Sample 47 (K103K/N, V106V/A, Y181Y/C, G190G/A)
[4] = Sample 58 (K103N, Y181Y/C, G190G/A)
[5] = Sample 62 (K103H, P225P/H, T369T/I)
[6] = Sample 90 (K103K/N, Y181C, G190A)

SMILES: O=C1Nc2ccc(Cl)cc2[C@@](C#CC2CC2)(C(F)(F)F)O1 [EFV, efavirenz]
- fold change in IC50, pol ([1]; Sample 31 (K103N)): 56.0 fold
- pol/PR-RT ratio ([1]; Sample 31 (K103N)): 2.5
- fold change in IC50, pol ([1]; Sample 33 (K103S)): 5.9 fold
- pol/PR-RT ratio ([1]; Sample 33 (K103S)): 0.8
- fold change in IC50, pol ([1]; Sample 34): 0.6 fold
- pol/PR-RT ratio ([1]; Sample 34): 1.4
- fold change in IC50, pol ([1]; Sample 35 (K103H)): 9.5 fold
- pol/PR-RT ratio ([1]; Sample 35 (K103H)): 1.0
- fold change in IC50, pol ([1]; Sample 36 (K103K/W)): 2.2 fold
- pol/PR-RT ratio ([1]; Sample 36 (K103K/W)): 0.3
- fold change in IC50, pol ([1]; Sample 38 (K103N)): 27.0 fold
- pol/PR-RT ratio ([1]; Sample 38 (K103N)): 0.6
- fold change in IC50, pol ([1]; Sample 39 (T369A)): 1.0 fold
- pol/PR-RT ratio ([1]; Sample 39 (T369A)): 4.0
- fold change in IC50, pol ([1]; Sample 42 (G190G/A)): 1.1 fold
- pol/PR-RT ratio ([1]; Sample 42 (G190G/A)): 0.3
- fold change in IC50, pol ([1]; Sample 45): 0.2 fold
- pol/PR-RT ratio ([1]; Sample 45): 1.0
- fold change in IC50, pol [1, 3]: 30.2 fold
- pol/PR-RT ratio [1, 3]: 0.2
- fold change in IC50, pol ([1]; Sample 50 (K103N)): 24.1 fold
- pol/PR-RT ratio ([1]; Sample 50 (K103N)): 0.4
- fold change in IC50, pol ([1]; Sample 51): 0.5 fold
- pol/PR-RT ratio ([1]; Sample 51): 1.1
- fold change in IC50, pol ([1]; Sample 52): 1.1 fold
- pol/PR-RT ratio ([1]; Sample 52): 0.8
- fold change in IC50, pol [1, 4]: 153.9 fold
- pol/PR-RT ratio [1, 4]: 5.8
- fold change in IC50, pol [1, 5]: 202 fold and 202.0 fold and 202.00 fold
- pol/PR-RT ratio [1, 5]: 10.1
- fold change in IC50, pol ([1]; Sample 64 (T369T/A)): 0.3 fold
- pol/PR-RT ratio ([1]; Sample 64 (T369T/A)): 0.3
- fold change in IC50, pol ([1]; Sample 69): 1.2 fold
- pol/PR-RT ratio ([1]; Sample 69): 1.6
- fold change in IC50, pol ([1]; Sample 72): 0.8 fold
- pol/PR-RT ratio ([1]; Sample 72): 1.5
- fold change in IC50, pol ([1]; Sample 80 (K103K/N, Y181Y/C)): 6.3 fold
- pol/PR-RT ratio ([1]; Sample 80 (K103K/N, Y181Y/C)): 0.6
- fold change in IC50, pol ([1]; Sample 81 (K103N, P225H)): 136.0 fold
- pol/PR-RT ratio ([1]; Sample 81 (K103N, P225H)): 1.4
- fold change in IC50, pol ([1]; Sample 84): 0.7 fold
- pol/PR-RT ratio ([1]; Sample 84): 1.0
- fold change in IC50, pol ([1]; Sample 85): 77.0 fold
- pol/PR-RT ratio ([1]; Sample 85): 3.5
- fold change in IC50, pol ([1]; Sample 87): 1.0 fold
- pol/PR-RT ratio ([1]; Sample 87): 1.1
- fold change in IC50, pol ([1]; Sample 89 (L1001, K103N)): 700.0 fold
- pol/PR-RT ratio ([1]; Sample 89 (L1001, K103N)): 1.0
- fold change in IC50, pol [1, 6]: 66.0 fold
- pol/PR-RT ratio [1, 6]: 1.3
- fold change in IC50, pol ([1]; Sample 92): 0.8 fold
- pol/PR-RT ratio ([1]; Sample 92): 0.8
- fold change in IC50, pol ([1]; Sample 93): 0.7 fold
- pol/PR-RT ratio ([1]; Sample 93): 0.8
- fold change in IC50, RHIN ([2]; Sample 31 (K103N)): 1.1 fold
- fold change in IC50, RHIN ([2]; Sample 33 (K103S)): 0.7 fold
- fold change in IC50, RHIN ([2]; Sample 34): 1.0 fold
- fold change in IC50, RHIN ([2]; Sample 35 (K103H)): 0.7 fold
- fold change in IC50, RHIN ([2]; Sample 36 (K103K/W)): 1.0 fold
- fold change in IC50, RHIN ([2]; Sample 38 (K103N)): 0.5 fold
- fold change in IC50, RHIN ([2]; Sample 39 (T369A)): 0.9 fold
- fold change in IC50, RHIN ([2]; Sample 42 (G190G/A)): 0.4 fold
- fold change in IC50, RHIN ([2]; Sample 45): 1.0 fold
- fold change in IC50, RHIN [2, 3]: 0.5 fold
- fold change in IC50, RHIN ([2]; Sample 50 (K103N)): 0.5 fold
- fold change in IC50, RHIN ([2]; Sample 51): 0.4 fold
- fold change in IC50, RHIN ([2]; Sample 52): 1.0 fold
- fold change in IC50, RHIN [2, 4]: 0.9 fold
- fold change in IC50, RHIN [2, 5]: 1.8 fold and 1.83 fold
- fold change in IC50, RHIN ([2]; Sample 64 (T369T/A)): 0.3 fold
- fold change in IC50, RHIN ([2]; Sample 69): 0.8 fold
- fold change in IC50, RHIN ([2]; Sample 72): 1.0 fold
- fold change in IC50, RHIN ([2]; Sample 80 (K103K/N, Y181Y/C)): 0.52 fold
- fold change in IC50, RHIN ([2]; Sample 81 (K103N, P225H)): 1.2 fold
- fold change in IC50, RHIN ([2]; Sample 84): 0.5 fold
- fold change in IC50, RHIN ([2]; Sample 85): 1.2 fold
- fold change in IC50, RHIN ([2]; Sample 87): 1.3 fold
- fold change in IC50, RHIN ([2]; Sample 89 (L1001, K103N)): 1.2 fold
- fold change in IC50, RHIN [2, 6]: 0.7 fold
- fold change in IC50, RHIN ([2]; Sample 92): 0.3 fold
- fold change in IC50, RHIN ([2]; Sample 93): 0.9 fold
